Experimental data published in patent US9067871B2, “Aminotetraline derivatives, pharmaceutical compositions containing them, and their use in therapy” (ABBVIE DEUTSCHLAND GMBH & CO KG, priority 2009, dated 2015).
Where a name gives a salt, the structure may show the parent alone.

biological target: human GlyT1c transporter (Homo sapiens (Human), UniProt P48067); test: Radioligand binding assay using recombinant CHO cell membranes expressing human GlyT1; conditions: human GlyT1c-expressing CHO cell membranes; hydrochloride; read-out: radioligand binding Kiapp
Sequence (P48067 whole entry): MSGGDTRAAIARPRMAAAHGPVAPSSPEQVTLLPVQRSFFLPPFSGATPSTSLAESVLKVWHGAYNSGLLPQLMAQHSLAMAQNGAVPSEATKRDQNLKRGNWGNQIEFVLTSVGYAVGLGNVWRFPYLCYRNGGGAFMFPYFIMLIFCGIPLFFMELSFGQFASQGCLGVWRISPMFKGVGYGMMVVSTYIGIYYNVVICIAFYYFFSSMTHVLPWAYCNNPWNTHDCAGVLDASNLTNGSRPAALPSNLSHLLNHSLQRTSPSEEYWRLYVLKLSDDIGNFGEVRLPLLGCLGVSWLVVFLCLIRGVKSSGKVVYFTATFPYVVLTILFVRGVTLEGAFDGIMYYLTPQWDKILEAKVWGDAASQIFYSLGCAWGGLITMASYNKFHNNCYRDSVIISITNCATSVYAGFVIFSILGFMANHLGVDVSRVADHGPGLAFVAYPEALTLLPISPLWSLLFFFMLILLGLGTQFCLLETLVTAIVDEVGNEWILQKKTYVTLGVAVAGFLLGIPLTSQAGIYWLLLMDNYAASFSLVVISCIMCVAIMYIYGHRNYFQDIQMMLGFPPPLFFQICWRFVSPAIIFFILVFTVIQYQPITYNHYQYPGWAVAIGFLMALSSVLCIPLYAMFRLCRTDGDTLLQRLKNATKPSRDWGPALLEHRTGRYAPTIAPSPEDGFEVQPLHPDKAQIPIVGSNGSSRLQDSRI
Source text: 2. Radioligand binding assays using recombinant CHO cell membranes expressing human GlyT1: […]

Ki	SMILES
≤ 100 nM	O=S(=O)(CC1CC1)NCCOc1ccc2c(c1)C(Cc1ccccc1)C(N1CCC1)CC2 (stereo not shown) [Example 142, N-(2-{[7-(Azetidin-1-yl)-8-benzyl-5,6,7,8-tetrahydronaphthalen-2-yl]oxy}ethyl)-1-cyclopropylmethanesulfonamide hydrochloride]
≤ 10 nM	Cn1cnc(S(=O)(=O)NCCOc2ccc3c(c2)C(Cc2ccccc2)C(N2CCCC2)CC3)c1 (single isomer, unassigned; (-)) [Example 117, (−)-N-(2-(8-benzyl-7-(pyrrolidin-1-yl)-5,6,7,8-tetrahydronaphthalen-2-yloxy)ethyl)-1-methyl-1H-imidazole-4-sulfonamide hydrochloride]

same assay, conditions: human GlyT1c-expressing CHO cell membranes; read-out: radioligand binding Kiapp

SMILES	Ki
Cn1cnc(S(=O)(=O)NCc2ccc3c(c2)C(Cc2ccccc2)C(N)CC3)c1 (stereo not shown) [Example 173, N-[(7-Amino-8-benzyl-5,6,7,8-tetrahydronaphthalen-2-yl)methyl]-1-methyl-1H-imidazole-4-sulfonamide hydrochloride]	≤ 10 nM
NC1CCc2ccc(CCCNS(=O)(=O)CC3CC3)cc2C1Cc1ccc(F)cc1 (stereo not shown) [Example 208, N-{3-[7-Amino-8-(4-fluorobenzyl)-5,6,7,8-tetrahydronaphthalen-2-yl]propyl}-1-cyclopropylmethanesulfonamide hydrochloride]	≤ 100 nM
Cn1cnc(S(=O)(=O)NCCOc2ccc3c(c2)C(Cc2cccc(C#N)c2)C(N2CCCC2)CC3)c1 (stereo not shown) [Example 153, N-(2-{[8-(3-Cyanobenzyl)-7-(pyrrolidin-1-yl)-5,6,7,8-tetrahydronaphthalen-2-yl]oxy}ethyl)-1-methyl-1H-imidazole-4-sulfonamide]	≤ 100 nM
CCCS(=O)(=O)NCCCc1ccc2c(c1)C(Cc1cccc(F)c1)C(NC(C)=O)CC2 (stereo not shown) [Example 214, N-[1-(3-Fluorobenzyl)-7-{3-[(propylsulfonyl)amino]propyl}-1,2,3,4-tetrahydronaphthalen-2-yl]acetamide]	≤ 10000 nM
CCCS(=O)(=O)NCCCc1ccc2c(c1)C(Cc1ccccc1)C(NCC)CC2 (stereo not shown) [Example 223, N-{3-[8-Benzyl-7-(ethylamino)-5,6,7,8-tetrahydronaphthalen-2-yl]propyl}propane-1-sulfonamide hydrochloride]	≤ 100 nM
CNC1CCc2ccc(OCCNS(=O)(=O)CC3CC3)cc2C1Cc1cccc(F)c1 (single isomer, unassigned; enantiomer 2) [Example 239, Enantiomer 2 of C-cyclopropyl-N-{2-[8-(3-fluoro-benzyl)-7-methylamino-5,6,7,8-tetrahydronaphthalen-2-yloxy]-ethyl}-methanesulfonamide hydrochloride]	≤ 1000 nM
Cn1cnc(S(=O)(=O)NCc2ccc3c(c2)C(Cc2ccccc2)C(N2CCC2)CC3)c1 (single isomer, unassigned; enantiomer 1) [Example 252, Enantiomer 1 of N-{[7-(azetidin-1-yl)-8-benzyl-5,6,7,8-tetrahydronaphthalen-2-yl]methyl}-1-methyl-1H-imidazole-4-sulfonamide]	≤ 10 nM
NC1CCc2ccc(CNS(=O)(=O)CC3CC3)cc2C1Cc1ccc(F)c(F)c1 (stereo not shown) [Example 185, N-{[7-Amino-8-(3,4-difluorobenzyl)-5,6,7,8-tetrahydronaphthalen-2-yl]methyl}-1-cyclopropylmethanesulfonamide hydrochloride]	≤ 1000 nM
CN(CCOc1ccc2c(c1)C(Cc1ccccc1)C(N)CC2)S(=O)(=O)CC1CC1 (stereo not shown) [Example 130, N-[2-(7-Amino-8-benzyl-5,6,7,8-tetrahydro-naphthalen-2-yloxy)-ethyl]-C-cyclopropyl-Nmethyl-methanesulfonamide hydrochloride]	≤ 10 nM
CNC1CCc2ccc(OCCNS(=O)(=O)CC3CC3)cc2C1Cc1ccc(F)cc1 (stereo not shown) [Example 161, 1-Cyclopropyl-N-(2-{[8-(4-fluorobenzyl)-7-(methylamino)-5,6,7,8-tetrahydronaphthalen-2-yl]oxy}ethyl)methanesulfonamide]	≤ 10 nM
O=S(=O)(NCCOc1ccc2c(c1)C(Cc1ccccc1)C(N1CCC1)CC2)C1CCC1 (stereo not shown) [Example 147, N-(2-{[7-(Azetidin-1-yl)-8-benzyl-5,6,7,8-tetrahydronaphthalen-2-yl]oxy}ethyl)cyclobutanesulfonamide]	≤ 100 nM
Cn1cnc(S(=O)(=O)NCCOc2ccc3c(c2)C(Cc2cccc(F)c2)C(N2CCC2)CC3)c1 (stereo not shown) [Example 141, N-(2-{[7-(Azetidin-1-yl)-8-(3-fluorobenzyl)-5,6,7,8-tetrahydronaphthalen-2-yl]oxy}ethyl)-1-methyl-1H-imidazole-4-sulfonamide hydrochloride]	≤ 10 nM
CNC1CCc2ccc(OCCNS(=O)(=O)c3ccn(C)c3)cc2C1Cc1cc(F)cc(F)c1 (stereo not shown) [Example 246, N-(2-{[8-(3,5-Difluorobenzyl)-7-(methylamino)-5,6,7,8-tetrahydronaphthalen-2-yl]oxy}ethyl)-1-methyl-1H-pyrrole-3-sulfonamide hydrochloride]	≤ 10 nM
CC(=O)NC1CCc2ccc(CNS(=O)(=O)c3cn(C)cn3)cc2C1Cc1ccc(F)cc1 (stereo not shown) [Example 197]	≤ 10000 nM
CCC(=O)NCCOc1ccc2c(c1)C(Cc1ccccc1)C(N)CC2 (stereo not shown) [Example 103, N-[2-(7-Amino-8-benzyl-5,6,7,8-tetrahydro-naphthalen-2-yloxy)-ethyl]-propionamide hydrochloride]	≤ 10000 nM
CCN(CCOc1ccc2c(c1)C(Cc1ccccc1)C(N)CC2)S(=O)(=O)c1cnn(C)c1 (stereo not shown) [Example 113, N-(2-(7-Amino-8-benzyl-5,6,7,8-tetrahydronaphthalen-2-yloxy)ethyl)-N-ethyl-1-methyl-1H-pyrazole-4-sulfonamide hydrochloride]	≤ 100 nM

The remaining lines, values ahead:

Ki	SMILES
≤ 1000 nM	O=S(=O)(NCc1ccc2c(c1)C(Cc1ccccc1)C(N1CCC1)CC2)c1cccs1 (single isomer, unassigned; enantiomer 1) [Example 255, Enantiomer 1 of N-{[7-(azetidin-1-yl)-8-benzyl-5,6,7,8-tetrahydronaphthalen-2-yl]methyl}thiophene-2-sulfonamide]
≤ 1000 nM	CCCS(=O)(=O)NCCOc1ccc2c(c1)C(Cc1cccc(Cl)c1)C(N1CCCC1)CC2 (stereo not shown) [Example 323, Propane-1-sulfonic acid {2-[8-(3-chloro-benzyl)-7-pyrrolidin-1-yl-5,6,7,8-tetrahydronaphthalen-2-yloxy]-ethyl}-amide hydrochloride]
≤ 1000 nM	NC1CCc2ccc(CCNS(=O)(=O)CC3CC3)cc2C1Cc1cccc(Cl)c1 (stereo not shown) [Example 310, N-{2-[7-Amino-8-(3-chloro-benzyl)-5,6,7,8-tetrahydro-naphthalen-2-yl]-ethyl}-C-cyclopropyl-methanesulfonamide hydrochloride]
≤ 10 nM	Cn1cc(S(=O)(=O)NCc2ccc3c(c2)C(Cc2ccccc2)C(N2CCC2)CC3)cn1 (single isomer, unassigned; enantiomer 1) [Example 254, Enantiomer 1 of N-{[7-(azetidin-1-yl)-8-benzyl-5,6,7,8-tetrahydronaphthalen-2-yl]methyl}-1-methyl-1H-pyrazole-4-sulfonamide]
≤ 100 nM	Cn1ccc(S(=O)(=O)NCCOc2ccc3c(c2)C(Cc2cccc(F)c2)C(N2CCCC2)CC3)c1 (stereo not shown) [Example 267, N-(2-{[8-(3-Fluorobenzyl)-7-(pyrrolidin-1-yl)-5,6,7,8-tetrahydronaphthalen-2-yl]oxy}ethyl)-1-methyl-1H-pyrrole-3-sulfonamide]
≤ 1000 nM	Cn1cnc(S(=O)(=O)NCc2ccc3c(c2)C(Cc2ccccc2)C(N2CCCC2=O)CC3)c1 (stereo not shown) [Example 263, N-{[8-Benzyl-7-(2-oxopyrrolidin-1-yl)-5,6,7,8-tetrahydronaphthalen-2-yl]methyl}-1-methyl-1H-imidazole-4-sulfonamide]
≤ 1000 nM	Cn1cnc(S(=O)(=O)NCCOc2ccc3c(c2)C(Cc2ccccc2Cl)C(N2CCCC2)CC3)c1 (stereo not shown) [Example 315, 1-Methyl-1H-imidazole-4-sulfonic acid {2-[8-(2-chloro-benzyl)-7-pyrrolidin-1-yl-5,6,7,8-tetrahydro-naphthalen-2-yloxy]-ethyl}-amide hydrochloride]
≤ 10000 nM	CCOC(=O)NC1CCc2ccc(OCCNS(=O)(=O)c3cn(C)cn3)cc2C1Cc1ccccc1Cl (stereo not shown) [Example 298, {1-(2-Chloro-benzyl)-7-[2-(1-methyl-1H-imidazole-4-sulfonylamino)-ethoxy]-1,2,3,4-tetrahydro-naphthalen-2-yl}-carbamic acid ethyl ester]
≤ 1000 nM	CCCS(=O)(=O)N1CC(COc2ccc3c(c2)C(Cc2ccccc2)C(N)CC3)C1 (stereo not shown) [Example 292, 1-Benzyl-7-[1-(propane-1-sulfonyl)-azetidin-3-ylmethoxy]-1,2,3,4-tetrahydro-naphthalen-2-ylamine hydrochloride]
≤ 100 nM	Cn1cnc(S(=O)(=O)NCCOc2ccc3c(c2)C(Cc2cccc(Cl)c2)C(N2CCCC2)CC3)c1 (stereo not shown) [Example 319, 1-Methyl-1H-imidazole-4-sulfonic acid {2-[8-(3-chloro-benzyl)-7-pyrrolidin-1-yl-5,6,7,8-tetrahydro-naphthalen-2-yloxy]-ethyl}-amide hydrochloride]
≤ 1000 nM	CCCS(=O)(=O)N1CC(c2ccc3c(c2)C(Cc2ccccc2)C(N)CC3)C1 (stereo not shown) [Example 284, 1-Benzyl-7-[1-(propane-1-sulfonyl)-azetidin-3-yl]-1,2,3,4-tetrahydro-naphthalen-2-ylamine hydrochloride]
≤ 1000 nM	CCCS(=O)(=O)NCCOc1ccc2c(c1)C(CC1CCCCC1)C(NC)CC2 (stereo not shown) [Example 314, Propane-1-sulfonic acid [2-(8-cyclohexylmethyl-7-methylamino-5,6,7,8-tetrahydronaphthalen-2-yloxy)-ethyl]-amide trifluoroacetate]

same assay, conditions: human GlyT1c-expressing CHO cell membranes; succinate; read-out: radioligand binding Kiapp

Ki	SMILES
≤ 1000 nM	O=S(=O)(CC1CC1)NCCOc1ccc2c(c1)C(Cc1ccccc1)C(N1CCC1)CC2 (single isomer, unassigned; (+)) [Example 144, (+)-N-(2-(7-(azetidin-1-yl)-8-benzyl-5,6,7,8-tetrahydronaphthalen-2-yloxy)ethyl)-1-cyclopropylmethanesulfonamide succinate]
